Assay results reported in ChEMBL document CHEMBL2375250, “Efficient synthesis of new (R)-2-amino-1-butanol derived ureas, thioureas and acylthioureas and in vitro evaluation of their antimycobacterial activity” (Eur J Med Chem, 2013).
≈ marks a conversion by molar mass, not a printed value. Structures can show the parent of a compound that is named as a salt.

Legend:
[1] = test system: Mycobacterium tuberculosis; experiment: Antimycobacterial activity against Mycobacterium tuberculosis H37Rv assessed as growth inhibition after 45 days by Lowenstein-Jensen method; type: functional
[2] = test system: Mycobacterium tuberculosis; experiment: Antimycobacterial activity against Mycobacterium tuberculosis H37Rv assessed as bacterial growth at 5 ug/mL after 45 days by Lowenstein-Jensen method; type: functional
[3] = test system: Mycobacterium tuberculosis; experiment: Antimycobacterial activity against Mycobacterium tuberculosis assessed as growth inhibition; type: functional
Mycobacterium avium = experiment: Antimycobacterial activity against Mycobacterium avium 724 assessed as growth inhibition after 12 days microdrop agar proportion test; type: functional; conditions: Mycobacterium avium, 724, 288 h
Mycolicibacterium aurum = experiment: Antimycobacterial activity against Mycobacterium aurum A+ assessed as growth inhibition after 4 days microdrop agar proportion test; type: functional; conditions: 96 h
[4] = Selectivity index, ratio of IC50 for HEK293T cells to MIC for Mycobacterium tuberculosis H37Rv; type: functional, HEK-293T
HEK-293T = experiment: Cytotoxicity against HEK293T cells assessed as cell viability after 72 hrs by MTT assay; type: cell-based; conditions: Homo sapiens

SMILES: CC[C@H](CO)NC(=O)NCc1ccccc1
- MIC [1]: > 22.5 µM
- Activity [2]: 100%

SMILES: CC[C@@H](CO)NCCN[C@@H](CC)CO [ETHAMBUTOL HYDROCHLORIDE]
- MIC [3]: 7.22 µM
- MIC [1]: 7.22 µM

SMILES: CCCNC(=O)N[C@H](CC)CO
- MIC [1]: > 28.7 µM
- Activity [2]: 100%

SMILES: CC(C)=CCC/C(C)=C/CNCCNC1C2CC3CC(C2)CC1C3 (stereo unspecified) [SQ109]
- MIC [3]: 0.7 µM (≈ 0.231 µg/mL)

SMILES: CC[C@H](CO)NC(=O)NCCc1ccccc1
- MIC [1]: > 21.2 µM
- Activity [2]: 100%

SMILES: CC(C)CCOc1ccc(NC(=S)Nc2ccc(OCCC(C)C)cc2)cc1 [TIOCARLIDE]
- MIC (Mycobacterium avium): 4.99 µM (≈ 2 µg/mL)
- MIC (Mycolicibacterium aurum): 4.99 µM

SMILES: CC[C@H](CO)NC(=O)NCC(c1ccccc1)c1ccccc1
- MIC [1]: 4.8 µM (≈ 1.5 µg/mL)
- Activity [2]: 100%

SMILES: CC[C@H](CO)NC(=O)NC1CCCCC1
- MIC [1]: > 23.3 µM
- Activity [2]: 100%

SMILES: CC[C@H](CO)NC(=O)NCCCCCCNC(=O)N[C@H](CC)CO
- MIC [1]: > 14.4 µM
- Activity [2]: 100%

SMILES: CC[C@H](CO)NC(=S)NC(=O)CCc1ccccc1
- Selectivity Index [4]: 9.3
- IC50 (HEK-293T): 66.2 µM
- MIC [1]: 7.13 µM (≈ 2 µg/mL)

SMILES: CC[C@H](CO)NC(=O)N[C@H](CC)CO
- MIC [1]: > 24.5 µM
- Activity [2]: 100%

SMILES: CC[C@H](CO)NC(=S)NC
- MIC [1]: > 30.8 µM
- Activity [2]: 100%

SMILES: CC[C@H](CO)NC(=O)N(C)C
- MIC [1]: > 31.2 µM
- Activity [2]: 100%

SMILES: CC[C@H](CO)NC(=O)Nc1ccccc1
- MIC [1]: > 24 µM
- Activity [2]: 100%

SMILES: CC[C@H](CO)NC(=S)NC(=O)c1ccc(N(C)C)cc1
- Selectivity Index [4]: 3.8
- IC50 (HEK-293T): 12.8 µM
- MIC [1]: 3.39 µM (≈ 1 µg/mL)

SMILES: CC[C@H](CO)NC(=S)NC(=O)c1ccccc1O
- Selectivity Index [4]: 14
- IC50 (HEK-293T): 104 µM
- MIC [1]: 7.46 µM (≈ 2 µg/mL)

SMILES: CCNC(=S)N[C@H](CC)CO
- MIC [1]: > 28.4 µM
- Activity [2]: 100%

SMILES: CC[C@H](CO)NC(=O)NC12CC3CC(CC(C3)C1)C2
- MIC [1]: > 18.8 µM
- Activity [2]: 100%

SMILES: CC[C@H](CO)NC(=O)Nc1ccc(NC(=O)N[C@H](CC)CO)cc1
- MIC [1]: > 14.8 µM
- Activity [2]: 100%

SMILES: CC[C@H](CO)NC(=S)NC(=O)/C=C/c1ccccc1
- Selectivity Index [4]: 119.2
- IC50 (HEK-293T): 42.9 µM
- MIC [1]: 0.36 µM (≈ 0.1 µg/mL)

SMILES: CC[C@H](CO)NC(=O)Nc1ccc(Cc2ccc(NC(=O)N[C@H](CC)CO)cc2)cc1
- MIC [1]: > 11.7 µM
- Activity [2]: 100%

SMILES: CCCCNC(=O)N[C@H](CC)CO
- MIC [1]: > 26.6 µM
- Activity [2]: 100%

SMILES: CC[C@H](CO)NC(=O)NC(C)(C)C
- MIC [1]: > 26.6 µM
- Activity [2]: 100%

SMILES: CC[C@H](CO)NC(=O)N[C@H](C)c1ccccc1
- MIC [1]: > 21.2 µM
- Activity [2]: 100%
